This note sets out measurements from ChEMBL document CHEMBL6120950, “Deep-Learning-Driven Discovery of SN3-1, a Potent NLRP3 Inhibitor with Therapeutic Potential for Inflammatory Diseases” (J Med Chem, 2024).

Activity calls are given as the source filed them. The rule behind the calls is not given here.

Data set [1] has as its target NACHT, LRR and PYD domains-containing protein 3 (Homo sapiens, UniProt Q96P20). Put plainly: Inhibition of NLRP3 inflammasome pathway in human THP-1 cells assessed as LPS-stimulated IL-1beta release pretreated with LPS for 3 hrs followed by compound addition for 30 mins prior to MSU addition and measured after 30 mins by ELISA. Format: cell-based. On the technique in general: An ELISA detects its analyte on a solid surface through an enzyme-linked reagent.

Data set [2] is described as follows: Glutathione reactivity in PBS buffer. It is filed as physicochemical.
A further data set deals with HEK-293T. Put plainly: Cytotoxicity against human HEK293T cells assessed as effect on cell viability at 50 uM incubated for 24 hrs by CCK-8 assay. Format: toxicity, cell-based.
The nature of data set [3]: Chronic toxicity in ICR mouse assessed as change in creatinine level at 300 mg/kg, po administered every day for 12 days. The following applies: in vivo, 288 h, time 12 day. It is filed as organism-based.
A short description of data set [4]: Half life in ICR mouse at 10 mg/kg, po measured upto 24 hrs by LC-MS/MS analysis. The following applies: in vivo. Format: ADME, organism-based.
Data set [5] is described as follows: Toxicity in C57BL/6 mouse assessed as total distance travelled at 30 mg/kg, po measured up to 7 days by open field test. It is filed as organism-based. The conditions noted are these: in vivo, 168 h, time < 7 day.
A short description of data set [6]: AUC (0 to t) in ICR mouse at 10 mg/kg, po measured upto 24 hrs by LC-MS/MS analysis. The following applies: in vivo. Format: ADME, organism-based.
Data set [7] can be described thus: Chronic toxicity in mouse assessed as reduction in body weight at 300 mg/kg, po administered every day for 12 days. It is filed as organism-based. The conditions noted are these: in vivo, 288 h, time 12 day.
In another data set the test system is BMDM. Description: Induction ROS production in human BMDM cells by MitoSOX probe based analysis. It is filed as functional, cell-based.
Data set [8] can be described thus: Cmax in ICR mouse at 1 mg/kg, iv measured upto 24 hrs by LC-MS/MS analysis. Format: ADME, organism-based. The conditions noted are these: in vivo.
The nature of data set [9]: Cmax in ICR mouse at 10 mg/kg, po measured upto 24 hrs by LC-MS/MS analysis. It is filed as ADME, organism-based. The conditions noted are these: in vivo.
A short description of data set [10]: Chronic toxicity in ICR mouse assessed as change in nitrogen level at 300 mg/kg, po administered every day for 12 days. The following applies: in vivo, 288 h, time 12 day. It is filed as organism-based.
Data set [11] is described as follows: Acute toxicity in po dosed C57BL/6J mouse assessed as lethal dose at measured for 1 week. It is filed as organism-based. The following applies: in vivo, time 1 weeks.
Data set [12] in a line: Volume of distribution at steady state in ICR mouse at 1 mg/kg, iv measured upto 24 hrs by LC-MS/MS analysis. Format: ADME, organism-based. The following applies: in vivo, read-out: Vdss.
The nature of data set [13]: Chronic toxicity in ICR mouse assessed as change in uric acid level at 300 mg/kg, po administered every day for 12 days. Format: organism-based. The following applies: in vivo, 288 h, time 12 day.
The test system of data set [14] is Mus musculus. Put plainly: Antialzheimer activity against scopolamine-induced cognitive impairment in C57BL/6 mouse assessed as increase in number of platform crossing at 30 mg/kg, po measured upto 14 days by morris water maze test. It is filed as functional, organism-based. The conditions noted are these: time <= 14.0 day.
Data set [15] is described as follows: Chronic toxicity in ICR mouse assessed as change in ALT level at 300 mg/kg, po administered every day for 12 days. Format: organism-based. The conditions noted are these: in vivo, 288 h, time 12 day.
Data set [16] is described as follows: MRT (0 to t) in ICR mouse at 1 mg/kg, iv measured upto 24 hrs by LC-MS/MS analysis. It is filed as ADME, organism-based. The following applies: in vivo.
Data set [17] can be described thus: AUC (0 to t) in ICR mouse at 1 mg/kg, iv measured upto 24 hrs by LC-MS/MS analysis. It is filed as ADME, organism-based. The conditions noted are these: in vivo.
Data set [18] can be described thus: Tmax in ICR mouse at 10 mg/kg, po measured upto 24 hrs by LC-MS/MS analysis. Format: ADME, organism-based. The following applies: in vivo.
The test system of data set [19] is Mus musculus. Put plainly: Anti-inflammatory activity in MSU-induced acute gouty arthritis ICR mouse model assessed as reduction in ankle swelling at 30 mg/kg, po administered for 7 days. Format: functional, organism-based. The following applies: time 7.0 day.
A short description of data set [20]: Clearance in ICR mouse at 1 mg/kg, iv measured upto 24 hrs by LC-MS/MS analysis. Format: ADME, organism-based. The conditions noted are these: in vivo.
Data set [21] can be described thus: Acute toxicity in mouse assessed as mortality at 2000 mg/kg, po measured on day 1. The following applies: in vivo, 24 h, time 1 day. Format: organism-based.
Data set [22] is described as follows: MRT (0 to t) in ICR mouse at 10 mg/kg, po measured upto 24 hrs by LC-MS/MS analysis. The following applies: in vivo. It is filed as ADME, organism-based.
Data set [23] in a line: Chronic toxicity in ICR mouse assessed as change in AST level at 300 mg/kg, po administered every day for 12 days. The following applies: in vivo, 288 h, time 12 day. Format: organism-based.
Data set [24] in a line: Tmax in ICR mouse at 1 mg/kg, iv measured upto 24 hrs by LC-MS/MS analysis. Format: ADME, organism-based. The conditions noted are these: in vivo.
Data set [25] in a line: Microsomal stability in human liver microsome assessed half life. It is filed as ADME. The following applies: liver microsomes. (In general: Liver microsomes are a subcellular fraction often used to study metabolism.)
Data set [26] is described as follows: Oral bioavailability in ICR mouse at 10 mg/kg measured upto 24 hrs by LC-MS/MS analysis. It is filed as ADME, organism-based. The following applies: in vivo.
A short description of data set [27]: Half life in ICR mouse at 1 mg/kg, iv measured upto 24 hrs by LC-MS/MS analysis. The following applies: in vivo. Format: ADME, organism-based.
Data set [28] can be described thus: Acute toxicity in C57BL/6J mouse assessed as mortality at 2000 mg/kg, po measured for 1 week. Format: organism-based. The conditions noted are these: in vivo, 168 h, time 1 weeks.

Sequence of NACHT, LRR and PYD domains-containing protein 3 (Q96P20 whole entry, the tested form may be a part): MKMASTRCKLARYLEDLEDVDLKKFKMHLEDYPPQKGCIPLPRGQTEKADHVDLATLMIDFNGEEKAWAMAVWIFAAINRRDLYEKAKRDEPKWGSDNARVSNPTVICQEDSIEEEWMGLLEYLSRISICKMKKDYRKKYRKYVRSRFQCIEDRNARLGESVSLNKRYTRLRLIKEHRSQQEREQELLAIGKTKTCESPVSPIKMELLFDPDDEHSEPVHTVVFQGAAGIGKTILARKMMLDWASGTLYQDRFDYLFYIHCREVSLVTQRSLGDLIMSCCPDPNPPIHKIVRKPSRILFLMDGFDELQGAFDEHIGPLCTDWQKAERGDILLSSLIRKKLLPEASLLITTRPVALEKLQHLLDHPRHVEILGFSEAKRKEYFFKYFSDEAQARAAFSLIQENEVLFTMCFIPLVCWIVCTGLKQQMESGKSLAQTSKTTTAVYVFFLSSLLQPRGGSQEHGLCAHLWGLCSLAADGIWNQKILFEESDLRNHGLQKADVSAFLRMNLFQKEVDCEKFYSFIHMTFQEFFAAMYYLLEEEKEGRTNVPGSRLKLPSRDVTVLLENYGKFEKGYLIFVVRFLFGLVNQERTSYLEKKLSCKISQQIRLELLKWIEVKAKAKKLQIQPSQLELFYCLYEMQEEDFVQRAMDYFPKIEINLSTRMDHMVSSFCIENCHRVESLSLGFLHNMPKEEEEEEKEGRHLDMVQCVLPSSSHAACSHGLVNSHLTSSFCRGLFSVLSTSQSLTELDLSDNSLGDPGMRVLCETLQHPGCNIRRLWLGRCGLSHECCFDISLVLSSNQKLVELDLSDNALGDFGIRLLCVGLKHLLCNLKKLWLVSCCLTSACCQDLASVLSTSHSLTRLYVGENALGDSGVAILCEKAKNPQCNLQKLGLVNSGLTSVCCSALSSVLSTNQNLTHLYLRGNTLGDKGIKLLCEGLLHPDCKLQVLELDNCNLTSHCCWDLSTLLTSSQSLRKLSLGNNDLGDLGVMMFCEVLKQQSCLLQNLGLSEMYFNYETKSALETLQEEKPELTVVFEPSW

In the case of `CC(=O)c1csc(NC(=O)Nc2c(-c3cccc(Cl)c3Cl)ccc3c2CCC3)c1`, in [1], the IC50 is > 1000 nM.

With `CC(C)(O)c1coc(S(=O)(=O)NC(=O)NC2CCCc3ccccc32)c1` (stereo not given), in [1], the IC50 is > 1000 nM.

As to `C=C(C)c1csc(SCC(=O)Nc2c(-c3cccc(Cl)c3Cl)ccc3c2CCC3)c1`, the IC50 in data set [1] was > 1000 nM.

On to `CC(C)(O)c1coc(S(=O)(=O)NC(=O)Nn2ccc3cccnc32)c1`, for which the IC50 in data set [1] was > 1000 nM.

`COC(=O)c1csc(CNC(=O)Nc2c(-c3cccc(Cl)c3Cl)ccc3c2CCC3)c1`: the IC50 in [1] was > 1000 nM.

As to `CC(C)(O)c1coc(S(=O)(=O)NC(=O)Nc2c(-c3cccc(Cl)c3Cl)ccc3c2CCC3)c1`, the Drug metabolism entry in data set [2] is “metabolite_detected”. Besides, the Activity entry with HEK-293T was “Non-toxic”.

`CC(C)(O)c1csc(S(=O)(=O)NC(=O)Nc2c(-c3cccc(Cl)c3Cl)ccc3c2CCC3)c1`: the Activity entry in data set [3], in data set [5], in data set [7], in [10], in data set [13] and in data set [15] was “Non-toxic” each time. Moreover, the Activity entry in data set [21] is on record as “Toxic”; in data set [23], “Non-toxic”; in data set [28], “Non-toxic”. The half-life in [4] is 1.86 h; in data set [25], 1.57 h; in data set [27] it was 2.57 h. The AUC(0-t) at 24 h worked out at 9710 ng·h/mL in [6] and 2610 ng·h/mL in data set [17]. Further, the result with BMDM, with Mus musculus [14] and in the data set with Mus musculus [19] was Active. Further, the Cmax amounted to 3920 ng/mL in data set [8] and 7120 ng/mL in data set [9]. In data set [11], the LD50 at 168 h amounted to 2000 mg/kg. For the same compound, in data set [12], the Vd turned out to be 0.638 L/kg. In addition, the figures for the MRT last at 24 h in data set [16] and in [22] were 1.75 h and 1.73 h, respectively. In addition, the values for the Tmax in data set [18] and in [24] were 0.5 h and 4.98 min, respectively. The same compound registered a clearance in data set [20] of 6.1 mL/min/kg. For the same compound, the bioavailability in data set [26] was 36.8%.

With `CC(C)(O)c1coc(S(=O)(=O)NC(=O)NC2c3ccccc3-c3ccccc32)c1`, in [1], the IC50 is > 1000 nM.

Take `CC(C)(O)c1coc(S(=O)(=O)NC(=O)Nc2c(-c3ccc4ccccc4c3)ccc3c2CCC3)c1`: the Drug metabolism result in [2] is on record as “metabolite_detected”. Moreover, in the data set with HEK-293T, the Activity entry was “Non-toxic”.

Consider `CC(C)(O)c1coc(S(=O)(=O)NC(=O)Nc2c3c(cc(Br)c2OC2CCCCC2)CCC3)c1`, for which, in data set [1], the IC50 is > 1000 nM.

With `CC(C)(O)c1coc(S(=O)(=O)NC(=O)Nc2c(-c3ccc(N4CCOCC4)cc3)ccc3c2CCC3)c1`, the IC50 in data set [1] is > 1000 nM.

As for `CC(C)(O)c1coc(S(=O)(=O)NC(=O)Nc2cccc3c2CCC3)c1`, in data set [1], the IC50 is > 1000 nM.

Usually IC50 stands for the concentration that gives 50% inhibition. Usually half-life stands for the time in which the quantity being followed falls by half. A low value points to rapid decline. One may read the AUC(0-t) as exposure summed from dosing to a finite time, without extrapolation to infinity. High values mean more exposure, low ones less exposure. A word on the Cmax: it is the highest concentration seen after dosing. One may read the LD50 as the dose at which mortality reaches 50%. In general, MRT last refers to a mean duration of stay, worked out from the concentration-time curve. What is called Tmax is the time from dosing to the highest level. Usually clearance stands for the volume of plasma or blood freed of the substance per unit of time. Low readings indicate inefficient removal, high ones efficient removal. What is called bioavailability is the share of a dose that reaches the circulation, judged against a reference dose that is usually intravenous. Read a high bioavailability as much systemic uptake.
